Consider 26 molecules from patent US11939314B2, “Quinolin-2-one derivatives” (MERCK PATENT GMBH, priority 2016, dated 2024).

For assay [1], the target named is T1, PDGFRalpha(V561D) (Homo sapiens, UniProt P16234, V561D).
T1 construct: recombinant human PDGFRalpha, amino acids 550end containing the V561 D mutation; 6His (N)
Description: PDGFRalpha(V561D) assay. The assay is classed as biochemical. As to conditions: recombinant human PDGFRalpha aa 550-end, 200 μM ATP, 1.4E-06 means 1.4×10^−6, read-out: Inhibition (IC50) of PDGFRα (V561D). The method, boiled down:
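Radiometric filter-binding assay: substrate phosphorylation by recombinant N-His-tagged human PDGFRα 550-end V561D was quenched with 3% phosphoric acid after 40 min at room temperature, then counted.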

Assay [2] addresses T2, c-Kit(V654A) (Homo sapiens, UniProt P10721, V654A).
T2 construct: amino acids 544-end containing the V654A mutation; GST (N)
As to the kind of experiment: c-Kit(V654A) assay. The assay is classed as biochemical. As to conditions: recombinant human c-Kit aa 544-end, 200 μM ATP, 1.4E-06 means 1.4×10^−6, read-out: Inhibition (IC50) of c-KIT (V654A). In outline:
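Radiometric filter-binding read-out: substrate 33P incorporation counted by scintillation after P30 filtermat washes in 75 mM phosphoric acid and methanol. Enzyme: N-GST recombinant human c-Kit aa 544-end carrying V654A.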

Broadly, the IC50 is the concentration at which inhibition is half-maximal.

T1 sequence (P16234 550-1089 V561D): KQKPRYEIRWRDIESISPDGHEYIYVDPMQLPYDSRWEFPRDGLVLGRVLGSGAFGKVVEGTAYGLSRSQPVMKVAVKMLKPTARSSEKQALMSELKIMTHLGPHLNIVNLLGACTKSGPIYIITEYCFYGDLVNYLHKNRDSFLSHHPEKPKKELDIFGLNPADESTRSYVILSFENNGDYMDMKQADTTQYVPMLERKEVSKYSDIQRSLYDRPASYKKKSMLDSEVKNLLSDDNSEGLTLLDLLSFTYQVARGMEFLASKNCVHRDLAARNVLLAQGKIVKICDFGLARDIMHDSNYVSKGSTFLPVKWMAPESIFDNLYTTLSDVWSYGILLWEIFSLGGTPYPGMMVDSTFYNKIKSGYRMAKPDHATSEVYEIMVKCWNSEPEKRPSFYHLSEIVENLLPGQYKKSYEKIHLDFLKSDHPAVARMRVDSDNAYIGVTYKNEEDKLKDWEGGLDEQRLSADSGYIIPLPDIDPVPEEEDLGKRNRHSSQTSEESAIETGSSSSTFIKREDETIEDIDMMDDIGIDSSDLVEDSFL
T2 sequence (P10721 544-976 V654A): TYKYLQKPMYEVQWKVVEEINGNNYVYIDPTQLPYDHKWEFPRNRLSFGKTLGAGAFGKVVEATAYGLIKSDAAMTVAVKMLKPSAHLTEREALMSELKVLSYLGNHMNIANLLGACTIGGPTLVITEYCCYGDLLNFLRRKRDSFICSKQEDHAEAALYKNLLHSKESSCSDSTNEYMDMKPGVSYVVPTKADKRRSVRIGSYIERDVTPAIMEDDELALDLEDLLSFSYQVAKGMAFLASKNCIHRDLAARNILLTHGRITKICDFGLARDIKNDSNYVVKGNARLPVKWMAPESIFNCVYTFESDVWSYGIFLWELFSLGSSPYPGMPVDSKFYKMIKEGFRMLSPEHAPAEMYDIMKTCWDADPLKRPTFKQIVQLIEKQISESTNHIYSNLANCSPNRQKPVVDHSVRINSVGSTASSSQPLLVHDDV

In the case of `N[C@@H]1[C@H]2CN(C(=O)c3ccc(-n4cc(-c5cc6cc(F)ccc6[nH]c5=O)nn4)cc3)C[C@@H]12` [A317, 3-{1-[4-(6-amino-3-aza-bicyclo[3.1.0]hexane-3-carbonyl)-phenyl]-1H-[1,2,3]triazol-4-yl}-6-fluoro-1H-quinolin-2-one], the IC50 stood at 1400 nM in assay [1] and 120 nM in assay [2].

`CN(C)C[C@@H]1CCCN1C(=O)c1ccc(-n2cc(-c3cc4cc(Cl)ccc4[nH]c3=O)nn2)cc1` [A318, 6-chloro-3-{1-[4-((S)-2-dimethylaminomethyl-pyrrolidine-1-carbonyl)-phenyl]-1H-[1,2,3]triazol-4-yl}-1H-quinolin-2-one]: the IC50 in assay [1] stood at 17 nM; in assay [2], 20 nM.

Consider `CN(C)C[C@@H]1CCCN1C(=O)c1ccc(-n2cc(-c3cc4cc(F)ccc4[nH]c3=O)nn2)cc1` [A319, 3-{1-[4-((S)-2-dimethylaminomethyl-pyrrolidine-1-carbonyl)-phenyl]-1H-[1,2,3]triazol-4-yl}-6-fluoro-1H-quinolin-2-one], for which the IC50 came to 36 nM in assay [1] and 27 nM in assay [2].

For `CN(C)C[C@H]1CCCN1C(=O)c1ccc(-n2cc(-c3cc4cc(F)c(F)cc4[nH]c3=O)nn2)cc1` [A320, 3-{1-[4-((R)-2-dimethylaminomethyl-pyrrolidine-1-carbonyl)-phenyl]-1H-[1,2,3]triazol-4-yl}-6,7-difluoro-1H-quinolin-2-one], the results for the IC50 in assay [1] and in assay [2] were 99 nM and 48 nM, respectively.

Regarding `CN(C)C[C@H]1CCCN1C(=O)c1ccc(-n2cc(-c3cc4cc(F)ccc4[nH]c3=O)nn2)cc1` [A321, 3-{1-[4-((R)-2-dimethylaminomethyl-pyrrolidine-1-carbonyl)-phenyl]-1H-[1,2,3]triazol-4-yl}-6-fluoro-1H-quinolin-2-one], the values for the IC50 in assay [1] and in assay [2] were 370 nM and 44 nM, respectively.

On to `CN(C)C[C@H]1CCCN1C(=O)c1ccc(-n2cc(-c3cc4cc(Cl)ccc4[nH]c3=O)nn2)cc1` [A322, 6-chloro-3-{1-[4-((R)-2-dimethylaminomethyl-pyrrolidine-1-carbonyl)-phenyl]-1H-[1,2,3]triazol-4-yl}-1H-quinolin-2-one], for which the IC50 in assay [1] turned out to be 65 nM; in assay [2], 25 nM.

With `CN(C)C[C@@H]1CCCN1C(=O)c1ccc(-n2cc(-c3cc4cc(F)c(F)cc4[nH]c3=O)nn2)cc1` [A323, 3-{1-[4-((S)-2-dimethylaminomethyl-pyrrolidine-1-carbonyl)-phenyl]-1H-[1,2,3]triazol-4-yl}-6,7-difluoro-1H-quinolin-2-one], the IC50 in assay [1] and in assay [2] was 220 nM throughout.

Turning to `CN(C)C[C@@H]1CCCN1C(=O)c1ccc(-n2cc(-c3cc4cc(F)ccc4[nH]c3=O)cn2)cc1` [A324, 3-{1-[4-((S)-2-dimethylaminomethyl-pyrrolidine-1-carbonyl)-phenyl]-1H-pyrazol-4-yl}-6-fluoro-1H-quinolin-2-one], the IC50 is 7.2 nM in assay [1] and 270 nM in assay [2].

In the case of `CN(C)C[C@H]1CCCN1C(=O)c1ccc(-n2cc(-c3cc4cc(F)ccc4[nH]c3=O)cn2)cc1` [A325, 3-{1-[4-((R)-2-dimethylaminomethyl-pyrrolidine-1-carbonyl)-phenyl]-1H-pyrazol-4-yl}-6-fluoro-1H-quinolin-2-one], the IC50 in assay [1] was 3.8 nM; in assay [2], 17 nM.

Turning to `CN(C)C[C@@H]1CCN(C(=O)c2ccc(-n3cc(-c4cc5cc(F)ccc5[nH]c4=O)nn3)cc2)C1` [A326, 3-{1-[4-((S)-3-dimethylaminomethyl-pyrrolidine-1-carbonyl)-phenyl]-1H-[1,2,3]triazol-4-yl}-6-fluoro-1H-quinolin-2-one], the IC50 in assay [1] came to 940 nM; in assay [2] it was 180 nM.

`CN1C[C@@H]2CN(C(=O)c3ccc(-n4cc(-c5cc6cc(F)ccc6[nH]c5=O)nn4)cc3)C[C@@H]2C1` [A327, 6-fluoro-3-{1-[4-((cis)-5-methyl-hexahydro-pyrrolo[3,4-c]pyrrole-2-carbonyl)-phenyl]-1H-[1,2,3]triazol-4-yl}-1H-quinolin-2-one]: the figures for the IC50 in assay [1] and in assay [2] were 220 nM and 14 nM, respectively.

Consider `CN(C)[C@@H]1CCCN(C(=O)c2ccc(-n3cc(-c4cc5cc(F)c(F)cc5[nH]c4=O)nn3)cc2)C1` [A328, 3-{1-[4-((R)-3-dimethylamino-piperidine-1-carbonyl)-phenyl]-1H-[1,2,3]triazol-4-yl}-6,7-difluoro-1H-quinolin-2-one], for which the IC50 was 97 nM in assay [1] and 40 nM in assay [2].

Consider `CN(C)[C@H]1CCCN(C(=O)c2ccc(-n3cc(-c4cc5cc(F)c(F)cc5[nH]c4=O)nn3)cc2)C1` [A329, 3-{1-[4-((S)-3-dimethylamino-piperidine-1-carbonyl)-phenyl]-1H-[1,2,3]triazol-4-yl}-6,7-difluoro-1H-quinolin-2-one], for which the values for the IC50 in assay [1] and in assay [2] were 92 nM and 73 nM, respectively.

For `CN(C)[C@H]1[C@@H]2CN(C(=O)c3ccc(-n4cc(-c5cc6cc(F)ccc6[nH]c5=O)nn4)cc3)C[C@@H]21` [A330, 3-{1-[4-(6-dimethylamino-3-aza-bicyclo[3.1.0]hexane-3-carbonyl)-phenyl]-1H-[1,2,3]triazol-4-yl}-6-fluoro-1H-quinolin-2-one], the IC50 is 21 nM in assay [1] and 48 nM in assay [2].

Regarding `CN(C)[C@@H]1CCCN(C(=O)c2ccc(-n3cc(-c4cc5cc(F)ccc5[nH]c4=O)nn3)cc2)C1` [A331, 3-{1-[4-((R)-3-dimethylamino-piperidine-1-carbonyl)-phenyl]-1H-[1,2,3]triazol-4-yl}-6-fluoro-1H-quinolin-2-one], the IC50 in assay [1] was 570 nM; in assay [2], 63 nM.

Regarding `CN(C)[C@H]1CCCN(C(=O)c2ccc(-n3cc(-c4cc5cc(F)ccc5[nH]c4=O)nn3)cc2)C1` [A332, 3-{1-[4-((S)-3-dimethylamino-piperidine-1-carbonyl)-phenyl]-1H-[1,2,3]triazol-4-yl}-6-fluoro-1H-quinolin-2-one], the IC50 in assay [1] was 100 nM; in assay [2], 71 nM.

For the molecule `CN(C)[C@@H]1CCCN(C(=O)c2ccc(-n3cc(-c4cc5ccc(F)cc5[nH]c4=O)nn3)cc2)C1` [A333, 3-{1-[4-((R)-3-dimethylamino-piperidine-1-carbonyl)-phenyl]-1H-[1,2,3]triazol-4-yl}-7-fluoro-1H-quinolin-2-one], the IC50 is 120 nM in assay [1] and 63 nM in assay [2].

Regarding `CN(C)C[C@H]1CCN(C(=O)c2ccc(-n3cc(-c4cc5cc(F)ccc5[nH]c4=O)nn3)cc2)C1` [A334, 3-{1-[4-((R)-3-dimethylaminomethyl-pyrrolidine-1-carbonyl)-phenyl]-1H-[1,2,3]triazol-4-yl}-6-fluoro-1H-quinolin-2-one], the IC50 in assay [1] came to 41 nM; in assay [2], 15 nM.

`CN(C)C[C@H]1CCN(C(=O)c2ccc(-n3cc(-c4cc5cc(F)c(F)cc5[nH]c4=O)nn3)cc2)C1` [A335, 3-{1-[4-((R)-3-dimethylaminomethyl-pyrrolidine-1-carbonyl)-phenyl]-1H-[1,2,3]triazol-4-yl}-6,7-difluoro-1H-quinolin-2-one]: the figures for the IC50 in assay [1] and in assay [2] were 680 nM and 170 nM, respectively.

For the molecule `CN(C)[C@H]1CCCN(C(=O)c2ccc(-n3cc(-c4cc5ccc(F)cc5[nH]c4=O)nn3)cc2)C1` [A336, 3-{1-[4-((S)-3-dimethylamino-piperidine-1-carbonyl)-phenyl]-1H-[1,2,3]triazol-4-yl}-7-fluoro-1H-quinolin-2-one], the results for the IC50 in assay [1] and in assay [2] were 240 nM and 180 nM, respectively.

Turning to `CCN(CC)[C@H]1CCCN(C(=O)c2ccc(-n3cc(-c4cc5cc(F)ccc5[nH]c4=O)nn3)cc2)C1` [A337, 3-{1-[4-((S)-3-diethylamino-piperidine-1-carbonyl)-phenyl]-1H-[1,2,3]triazol-4-yl}-6-fluoro-1H-quinolin-2-one], the IC50 in assay [1] came out at 230 nM; in assay [2], 75 nM.

For `CCN(CC)[C@@H]1CCCN(C(=O)c2ccc(-n3cc(-c4cc5cc(F)ccc5[nH]c4=O)nn3)cc2)C1` [A338, 3-{1-[4-((R)-3-diethylamino-piperidine-1-carbonyl)-phenyl]-1H-[1,2,3]triazol-4-yl}-6-fluoro-1H-quinolin-2-one], the results for the IC50 in assay [1] and in assay [2] were 160 nM and 39 nM, respectively.

Take `CNc1ccc(-n2cc(-c3cc4cc(F)ccc4[nH]c3=O)nn2)cc1` [A342, 6-fluoro-3-[1-(4-methylamino-phenyl)-1H-[1,2,3]triazol-4-yl]-1H-quinolin-2-one]: the IC50 in assay [1] is 36 nM; in assay [2] it was 25 nM.

As for `CN(C(=O)[C@H]1CCCO1)c1ccc(-n2cc(-c3cc4cc(F)ccc4[nH]c3=O)nn2)cc1` [A343, (R)-tetrahydro-furan-2-carboxylic acid {4-[4-(6-fluoro-2-oxo-1,2-dihydro-quinolin-3-yl)-[1,2,3]triazol-1-yl]-phenyl}-methyl-amide], the 50% inhibitory concentration (IC50) in assay [1] worked out at 85 nM; in assay [2] it was 9 nM.

Turning to `CN(C(=O)[C@@H]1CCCO1)c1ccc(-n2cc(-c3cc4cc(F)ccc4[nH]c3=O)nn2)cc1` [A344, (S)-tetrahydro-furan-2-carboxylic acid {4-[4-(6-fluoro-2-oxo-1,2-dihydro-quinolin-3-yl)-[1,2,3]triazol-1-yl]-phenyl}-methyl-amide], the IC50 in assay [1] stood at 16 nM; in assay [2] it was 9.7 nM.

On to `CN(C(=O)C1CCOCC1)c1ccc(-n2cc(-c3cc4cc(F)ccc4[nH]c3=O)nn2)cc1` [A345, tetrahydro-pyran-4-carboxylic acid {4-[4-(6-fluoro-2-oxo-1,2-dihydro-quinolin-3-yl)-[1,2,3]triazol-111]-phenyl}-methyl-amide], for which the IC50 came out at 1500 nM in assay [1] and 12 nM in assay [2].
